These results are taken from patent publication US11407728B2, “Derivatives of EPA endocannabinoid epoxides as anti-inflammatory, anti-cancerous, anti-angiogenc and antiplatelet aggregation compounds” (The Board of Trustees of the University of Illinois, priority 2017, dated 2022).

Series [1] deals with T1, CNR2 (cannabinoid receptor 2) (Homo sapiens, UniProt P34972).
T1 construct: Tango fusion module; by own knowledge of the PRESTO-Tango design: V2 tail, TEV cleavage site, tTA; (C); own knowledge of the PRESTO-Tango design; (N); host or cells: HTLA cells
T1 sequence (P34972 whole entry, the tested form may be a part): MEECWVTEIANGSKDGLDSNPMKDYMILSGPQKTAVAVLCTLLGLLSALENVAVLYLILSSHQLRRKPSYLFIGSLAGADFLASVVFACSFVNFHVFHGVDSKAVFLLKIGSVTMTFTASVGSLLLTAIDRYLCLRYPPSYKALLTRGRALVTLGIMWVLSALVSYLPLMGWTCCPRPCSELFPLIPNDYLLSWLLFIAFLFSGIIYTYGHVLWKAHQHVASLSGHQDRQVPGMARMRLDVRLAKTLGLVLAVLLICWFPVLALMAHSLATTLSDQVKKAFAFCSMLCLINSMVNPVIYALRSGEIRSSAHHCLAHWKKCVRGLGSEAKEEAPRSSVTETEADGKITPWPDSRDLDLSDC
As to the kind of experiment: Presto-Tango β-arrestin recruitment assay, CNR2. The following applies: CNR2-transfected HTLA cells, luminescence, 1 μM AUDA; read-out: EC50 CNR2 activation. Format: cell-based. An excerpt: (§1) FIG. 5A and FIG. 5B show dose-response curves for cannabinoid receptor 1 (CNR1) and cannabinoid receptor 2 (CNR2), respectively. The dose response curves were generated by monitoring the relative luminescence of cannabinoid receptor 1 (CNR1) and cannabinoid receptor 2 (CNR2) of PRESTO-Tango gene-transfected HTLA cells for 17,18-EEQ-EA, EPEA, and CP 55940. Values shown are the mean±SEM of experiments performed multiple times (n=3-7) *P<0.05, **P<0.01, and ***P<0.001.
(§2) Binding of the parent compounds to putative receptors CNR1 and CNR2 (cannabinoid receptors 1 & 2) was measured by a Presto-Tango assay (FIG. 5A and FIG. 5B, respectively). These receptors are responsible for many downstream effects of marijuana derivatives as well as other endocannabinoids that have been previously reported in literature and this study explores if our compounds bind to these receptors. HTLA cells were received from the Roth Lab and CNR1 and CNR2 plasmids were purchased from Addgene. […] The following day, media was removed and 40 μL of diluted Bright-Glo solution (Promega, Madison. Wis.) was added to each well and incubated in the dark for 20 min at room temperature before luminescence recordings. Relative luminescence units (RLU) values were normalized to % receptor response, plotted as a function of compound concentration and analyzed using “DoseResp” in OriginPro.

The target of series [2] is T2, CNR1 (cannabinoid receptor 1) (Homo sapiens, UniProt P21554).
T2 construct: Tango fusion module; by own knowledge of the PRESTO-Tango design: V2 tail, TEV cleavage site, tTA; (C); own knowledge of the PRESTO-Tango design; (N); host or cells: HTLA cells
T2 sequence (P21554 whole entry, the tested form may be a part): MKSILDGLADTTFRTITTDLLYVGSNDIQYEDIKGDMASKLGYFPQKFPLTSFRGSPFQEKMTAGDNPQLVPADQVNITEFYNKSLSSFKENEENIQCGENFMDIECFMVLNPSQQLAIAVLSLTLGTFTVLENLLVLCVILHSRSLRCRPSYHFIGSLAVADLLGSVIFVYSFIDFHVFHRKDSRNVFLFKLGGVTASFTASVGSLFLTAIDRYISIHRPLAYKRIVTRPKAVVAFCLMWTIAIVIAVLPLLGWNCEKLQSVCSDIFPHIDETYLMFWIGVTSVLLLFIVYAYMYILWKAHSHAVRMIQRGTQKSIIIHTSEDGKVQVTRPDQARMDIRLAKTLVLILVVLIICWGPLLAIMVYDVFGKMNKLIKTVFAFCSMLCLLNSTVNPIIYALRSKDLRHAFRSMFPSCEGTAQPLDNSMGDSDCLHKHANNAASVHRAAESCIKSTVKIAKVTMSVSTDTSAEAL
Nature of the series: Presto-Tango β-arrestin recruitment assay, CNR1. In kind it is cell-based. The settings on record: CNR1-transfected HTLA cells, luminescence, 1 μM AUDA; read-out: EC50 CNR1 activation.
Text: as §1, §2
(In general: Recruitment of arrestin is a read-out of receptor activation apart from second messengers.)

In series [3] the test system is mouse BV-2 microglial cells. As to the kind of experiment: Anti-inflammatory assay in BV-2 microglial cells, IL-6 secretion (ELISA) after LPS stimulation. The settings on record: BV-2 cells pre-incubated 4 hours with varying concentrations, 25 ng/mL LPS, media collected at 24 hours. In kind it is cell-based. As for the experimental part: FIG. 3A, FIG. 3B, FIG. 3C and FIG. 3D show the dose-dependent NO and Il-6 studies for 17,18-EEQ-EA and 8,9-EEQ-EA. BV-2 microglial cells were pre-incubated with varying concentrations of 17,18-EEQ-EA or 8,9-EEQ-EA for 4 hours followed by LPS (25 ng/mL) stimulation. Culture medium was collected after 24 hours and analyzed for NO (A, C) and IL-6 (B, D) production. Significant P values are indicated as *** (P≤0.001), ** (P≤0.01), and * (P≤0.05). Values are expressed as mean±SEM and +/− indicates LPS added or LPS not added. * represents P<0.05, ** represents P<0.01, *** represents P<0.001, **** represents P<0.0001 relative to LPS.
Experiments were performed with mouse BV-2 microglial cells. Cells were grown and maintained in Dulbecco's modified Eagle's medium supplemented with 10% fetal bovine serum, 1% streptomycin and penicillin at 37° C. in a 5% CO2 humidified air atmosphere. BV-2 cells were seeded in 24-well plates (200K cells/mL) and grown to 80-90% confluency. […] To determine nitrite and IL-6 production, media was collected at 24 hours and the production of nitric oxide (NO) was determined by using the Greiss method and IL-6 secretion was measured using ELISA (no. 583371; Cayman Chemical).
Background: An ELISA detects its analyte on a solid surface through an enzyme-linked reagent.

In series [4] the target is T3, fatty acid amide hydrolase (FAAH) (Rattus norvegicus, UniProt P97612).
T3 construct: incubated with 100 μg forebrain membrane; from tissue; host or cells: rat forebrain membranes
T3 sequence (P97612 1-579): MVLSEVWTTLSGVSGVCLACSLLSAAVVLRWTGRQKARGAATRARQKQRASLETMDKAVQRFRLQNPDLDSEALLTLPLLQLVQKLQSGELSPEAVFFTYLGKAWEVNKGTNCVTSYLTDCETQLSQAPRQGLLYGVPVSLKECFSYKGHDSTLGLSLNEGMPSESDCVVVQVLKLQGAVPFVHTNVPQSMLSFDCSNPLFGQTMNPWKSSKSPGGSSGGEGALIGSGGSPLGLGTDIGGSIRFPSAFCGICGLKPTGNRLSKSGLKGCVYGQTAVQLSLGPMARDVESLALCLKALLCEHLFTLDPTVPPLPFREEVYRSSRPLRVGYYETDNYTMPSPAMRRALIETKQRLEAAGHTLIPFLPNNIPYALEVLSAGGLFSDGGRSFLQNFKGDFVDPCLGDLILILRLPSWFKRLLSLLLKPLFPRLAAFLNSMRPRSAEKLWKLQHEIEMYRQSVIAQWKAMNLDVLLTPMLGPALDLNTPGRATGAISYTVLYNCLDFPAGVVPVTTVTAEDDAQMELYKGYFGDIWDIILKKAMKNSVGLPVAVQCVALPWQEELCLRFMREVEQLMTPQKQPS
Nature of the series: Fatty acid amide hydrolase (FAAH) hydrolysis in rat forebrain membranes. The following applies: 50 μM substrate, 100 μg rat forebrain membrane, 5, 20 and 40 minutes, 37° C. Format: in vitro ADME. Here is the method: (§3) FIG. 4A, FIG. 4B, FIG. 4C and FIG. 4D show FAAH (FIG. 4B and FIG. 4D) and sEH (FIG. 4A and FIG. 4C) hydrolysis of 17,18-EEQ-EA and 8,9-EEQ-EA, respectively. To determine the rate of hydrolysis by sEH, increasing substrate (8,9-EEQ-EA) concentrations were incubated at 37° C. with sEH ([E]final=6 nM). For Vmax and Km values, plots were fitted to the Michaelis-Menten equation using Origin Pro. For FAAH hydrolysis, membranes from rat forebrain tissue were isolated for time-based hydrolysis. Incubations were performed with 100 μg of forebrain protein and 50 μM of substrate for 5, 20 and 40 minutes at 37° C. Both reactions were measured for product conversion using LC-MS/MS.
For fatty acid amide hydrolase (FAAH) kinetics (FIG. 4B and FIG. 4D), rat forebrain membranes were homogenized in buffer (50 mM Tris pH 7.4, 1 mM EDTA and 3 mM MgCl2) and membrane pellet was collected as previously described. 8,9-EEQ-EA or 13,14-EDP-EA (50 μM) was incubated with 100 μg forebrain membrane containing 50 mM Tris (pH 7.4), 1 mM EDTA, 3 mM MgCl2 in a 0.5 mL reaction. Linearity of the reactions was confirmed at 5, 20 and 40 minutes. Reactions were stopped with methanol containing 1 mM PMSF and centrifuged at 10,000 g for 10 min to collect supernatant via LC-MS/MS.

For another series, the target named is T4, recombinant sEH (Homo sapiens, UniProt P34913).
T4 sequence (P34913 1-555): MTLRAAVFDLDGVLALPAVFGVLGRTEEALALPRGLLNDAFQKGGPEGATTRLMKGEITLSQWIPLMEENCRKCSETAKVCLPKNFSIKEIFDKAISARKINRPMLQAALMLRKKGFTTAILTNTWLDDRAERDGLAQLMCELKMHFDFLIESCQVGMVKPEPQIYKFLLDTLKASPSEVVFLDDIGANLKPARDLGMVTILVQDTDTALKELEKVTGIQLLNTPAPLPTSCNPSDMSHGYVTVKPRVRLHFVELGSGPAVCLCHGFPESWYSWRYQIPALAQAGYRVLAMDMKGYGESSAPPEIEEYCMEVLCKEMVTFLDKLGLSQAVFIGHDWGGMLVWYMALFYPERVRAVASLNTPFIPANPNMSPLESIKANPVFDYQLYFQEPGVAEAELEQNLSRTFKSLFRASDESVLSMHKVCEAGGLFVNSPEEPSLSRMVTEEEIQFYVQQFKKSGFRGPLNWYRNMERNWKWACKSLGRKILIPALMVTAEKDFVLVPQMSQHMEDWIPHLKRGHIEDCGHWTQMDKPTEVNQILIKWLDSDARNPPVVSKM
Nature of the series: Soluble epoxide hydrolase (sEH) hydrolysis kinetics. Format: in vitro ADME. The following applies: 8,9-EEQ-EA versus 17,18 EEQ-EA. Here is the method:
as §3
For soluble epoxide hydrolase (sEH) kinetics, increasing concentrations of substrates (8,9-EEQ-EA (FIG. 4C) and 17,18-EEQ-EA (FIG. 4A)) were incubated with recombinant sEH (final [6 nM]) in a 0.1 mL reaction containing NaPO4 (0.1 M, pH 7.4), bovine serum albumin (0.1 mg/ml) at 37° C. The enzymatic reaction was stopped after 5 min with equal volume of methanol with AUDA (0.5 μM) and centrifuged at 10,000 g for 10 min. The supernatant was saved and quantitated using LC-MS/MS. Data was fit to kinetic curves and the Michaelis-Menten equation was used to calculate Vmax and Km.

In the case of `CCC1OC1C/C=C\C/C=C\C/C=C\C/C=C\CCCC(=O)NCCO` (stereo not drawn) [17,18-EEQ-EA], the EC50 – broadly, the midpoint of the concentration-response curve – is 1.4 nM in series [1] and 18.5 nM in series [2]. Also, the IL-6 secretion result in series [3] is on record as “reduced IL-6 in a dose-dependent manner”.

Regarding `CC/C=C\C/C=C\C/C=C\CC1OC1C/C=C\CCCC(=O)NCCO` (stereo not drawn) [8,9-EEQ-EA], in series [4], the “rate of FAAH hydrolysis to the corresponding EEQ” value is “comparable to the rate of 17, 18-EEQ-EA to 17,18-EEQ”. Besides, the IL-6 secretion entry in series [3] is “reduced IL-6 in a dose-dependent manner”. Besides, at recombinant sEH, the “sEH turnover rate relative to 17,18 EEQ-EA (times)” value was 4 times.
